According to patent US6737383B1, “Herbicidal oxadiazolidines” (priority 1999, dated 2004):

Key:
[1] = tested on: morningglory; test: Test B pre/postemergence morningglory; type: in vivo, Ipomoea hederacea
Outline: (§1)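 Response is a visual 0-to-10 score relative to untreated plants, where 0 means no effect and 10 means complete control, taken twelve to sixteen days after application. Treatments went onto soil at planting and onto foliage of 1- to 4-leaf plants, using a surfactant-containing non-phytotoxic solvent.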

[2] = tested on: giant foxtail; test: Test B pre/postemergence giant foxtail; type: in vivo, Setaria faberii
Outline: as §1

[3] = tested on: sugar beet; test: Test B pre/postemergence sugar beet; type: in vivo, Beta vulgaris
Outline: as §1

[4] = tested on: corn; test: Test B pre/postemergence corn; type: in vivo, Zea mays
Outline: as §1

[5] = tested on: pigweed; test: Test B pre/postemergence pigweed; type: in vivo, Amaranthus retroflexus
Outline: as §1

[6] = tested on: wheat; test: Test B pre/postemergence wheat; type: in vivo, Triticum aestivum
Outline: as §1

[7] = tested on: surinam grass; test: Test B pre/postemergence surinam grass; type: in vivo, Brachiaria decumbens
Outline: as §1

[8] = tested on: soybean; test: Test B pre/postemergence soybean; type: in vivo, Glycine max
Outline: as §1

[9] = tested on: blackgrass; test: Test B pre/postemergence blackgrass; type: in vivo, Alopecurus myosuroides
Outline: as §1

[10] = tested on: velvetleaf; test: Test B pre/postemergence velvetleaf; type: in vivo, Abutilon theophrasti
Outline: as §1

[11] = tested on: bedstraw; test: Test B pre/postemergence bedstraw; type: in vivo, Galium aparine
Outline: as §1

[12] = tested on: purple nutsedge; test: Test B pre/postemergence purple nutsedge; type: in vivo, Cyperus rotundus
Outline: as §1

[13] = tested on: cocklebur; test: Test B pre/postemergence cocklebur; type: in vivo, Xanthium strumarium
Outline: as §1

[14] = tested on: wild oat; test: Test B pre/postemergence wild oat; type: in vivo, Avena fatua
Outline: as §1

[15] = tested on: rape; test: Test B pre/postemergence rape; type: in vivo, Brassica napus
Outline: as §1

[16] = tested on: crabgrass; test: Test B pre/postemergence crabgrass; type: in vivo, Digitaria sanguinalis
Outline: as §1

[17] = Postemergence, Rate 62 g/ha, scale of 0 to 10, 0 is no effect, 10 is complete control
[18] = Postemergence, Rate 125 g/ha, scale 0 to 10, 0 is no effect, 10 is complete control
[19] = Postemergence, Rate 500 g/ha, scale 0 to 10, 0 is no effect, 10 is complete control
[20] = Preemergence, Rate 62 g/ha, scale 0 to 10 (0 no effect, 10 complete control)
[21] = Preemergence, Rate 125 g/ha, scale 0 to 10, 0 is no effect, 10 is complete control
[22] = Preemergence, Rate 500 g/ha, scale of 0 to 10 where 0 is no effect and 10 is complete control
[23] = Rate 250 g/ha, Postemergence, scale of 0 to 10 where 0 is no effect and 10 is complete control

## CCOC(=O)C=C(Cn1c(=O)on(C(=O)N(c2ccc(Cl)cc2)C(C)C)c1=O)OCC [Compound 549]
[1]; [17]
  Morningglory plant response rating: 4
[1]; [18]
  Morningglory plant response rating: 4
[1]; [19]
  Plant response rating, Morningglory: 4
[1]; [20]
  Morningglory plant response rating: 0
[1]; [21]
  Morningglory plant response rating: 0
[1]; Preemergence, Rate 250 g/ha
  Morningglory plant response rating (0 to 10 scale): 0
[1]; [22]
  Morningglory plant response rating: 0
[1]; [23]
  Plant response rating, Morningglory: 4
[2]; [17]
  Giant foxtail plant response rating: 2
[2]; [18]
  Giant foxtail plant response rating: 2
[2]; [19]
  Plant response rating, Giant foxtail: 7
[2]; [20]
  Giant foxtail plant response rating: 9
[2]; [21]
  Giant foxtail plant response rating: 10
[2]; Preemergence, Rate 250 g/ha
  Giant foxtail plant response rating (0 to 10 scale): 10
[2]; [22]
  Giant foxtail plant response rating: 10
[2]; [23]
  Plant response rating, Giant foxtail: 2
[3]; [17]
  Sugarbeets plant response rating: 0
[3]; [18]
  Sugarbeets plant response rating: 0
[3]; [19]
  Plant response rating, Sugarbeets: 4
[3]; [20]
  Sugarbeets plant response rating: 0
[3]; [21]
  Sugarbeets plant response rating: 0
[3]; Preemergence, Rate 250 g/ha
  Sugarbeets plant response rating (0 to 10 scale): 0
[3]; [22]
  Sugarbeets plant response rating: 3
[3]; [23]
  Plant response rating, Sugarbeets: 0
[4]; [17]
  Corn plant response rating: 0
[4]; [18]
  Corn plant response rating: 0
[4]; [19]
  Plant response rating, Corn: 0
[4]; [20]
  Corn plant response rating: 0
[4]; [21]
  Corn plant response rating: 0
[4]; Preemergence, Rate 250 g/ha
  Corn plant response rating (0 to 10 scale): 0
[4]; [22]
  Corn plant response rating: 0
[4]; [23]
  Plant response rating, Corn: 0
[5]; [17]
  Redroot pigweed plant response rating: 0
[5]; [18]
  Redroot pigweed plant response rating: 0
[5]; [19]
  Plant response rating, Redroot pigweed: 8
[5]; [20]
  Redroot pigweed plant response rating: 6
[5]; [21]
  Redroot pigweed plant response rating: 6
[5]; [23]
  Plant response rating, Redroot pigweed: 0
[6]; [17]
  Wheat plant response rating: 0
[6]; [18]
  Wheat plant response rating: 0
[6]; [19]
  Plant response rating, Wheat: 2
[6]; [20]
  Wheat plant response rating: 0
[6]; [21]
  Wheat plant response rating: 0
[6]; [22]
  Wheat plant response rating: 0
[6]; [23]
  Plant response rating, Wheat: 0
[7]; [17]
  B. signalgrass plant response rating: 0
[7]; [18]
  B. signalgrass plant response rating: 0
[7]; [19]
  Plant response rating, B. signalgrass: 3
[7]; [20]
  B. signalgrass plant response rating: 0
[7]; [21]
  B. signalgrass plant response rating: 0
[7]; Preemergence, Rate 250 g/ha
  B. signalgrass plant response rating (0 to 10 scale, 0 is no effect, 10 is complete control): 0
[7]; [22]
  B. signalgrass plant response rating: 0
[7]; [23]
  Plant response rating, B. signalgrass: 0
[8]; [17]
  Soybean plant response rating: 2
[8]; [18]
  Soybean plant response rating: 2
[8]; [19]
  Plant response rating, Soybean: 3
[8]; [20]
  Soybean plant response rating: 0
[8]; [21]
  Soybean plant response rating: 0
[8]; Preemergence, Rate 250 g/ha
  Soybean plant response rating (0 to 10 scale): 0
[8]; [22]
  Soybean plant response rating: 0
[8]; [23]
  Plant response rating, Soybean: 2
[9]; [17]
  Blackgrass plant response rating: 0
[9]; [18]
  Blackgrass plant response rating: 0
[9]; [19]
  Plant response rating, Blackgrass: 3
[9]; [20]
  Blackgrass plant response rating: 0
[9]; [21]
  Blackgrass plant response rating: 4
[9]; Preemergence, Rate 250 g/ha
  Blackgrass plant response rating (0 to 10 scale): 6
[9]; [23]
  Plant response rating, Blackgrass: 2
[10]; [18]
  Velvetleaf plant response rating: 0
[10]; [19]
  Plant response rating, Velvetleaf: 4
[10]; [20]
  Velvetleaf plant response rating: 0
[10]; [21]
  Velvetleaf plant response rating: 0
[10]; Preemergence, Rate 250 g/ha
  Velvetleaf plant response rating (0 to 10 scale): 0
[10]; [22]
  Velvetleaf plant response rating: 0
[10]; [23]
  Plant response rating, Velvetleaf: 4
[11]; [17]
  Bedstraw plant response rating: 0
[11]; [18]
  Bedstraw plant response rating: 0
[11]; [19]
  Plant response rating, Bedstraw: 8
[11]; [20]
  Bedstraw plant response rating: 0
[11]; [21]
  Bedstraw plant response rating: 0
[11]; Preemergence, Rate 250 g/ha
  Bedstraw plant response rating (0 to 10 scale): 5
[11]; [22]
  Bedstraw plant response rating: 5
[11]; [23]
  Plant response rating, Bedstraw: 0
[12]; [18]
  Nutsedge plant response rating: 0
[12]; [19]
  Plant response rating, Nutsedge: 0
[12]; [21]
  Nutsedge plant response rating: 0
[12]; Preemergence, Rate 250 g/ha
  Nutsedge plant response rating (0 to 10 scale): 0
[12]; [22]
  Nutsedge plant response rating: 0
[13]; [17]
  Cocklebur plant response rating: 0
[13]; [18]
  Cocklebur plant response rating: 0
[13]; [19]
  Plant response rating, Cocklebur: 4
[13]; [20]
  Cocklebur plant response rating: 0
[13]; [21]
  Cocklebur plant response rating: 0
[13]; Preemergence, Rate 250 g/ha
  Cocklebur plant response rating (0 to 10 scale): 0
[13]; [22]
  Cocklebur plant response rating: 0
[13]; [23]
  Plant response rating, Cocklebur: 0
[14]; [17]
  Wild oats plant response rating: 0
[14]; [18]
  Wild oats plant response rating: 0
[14]; [19]
  Plant response rating, Wild oats: 2
[14]; [20]
  Wild oats plant response rating: 0
[14]; [21]
  Wild oats plant response rating: 0
[14]; Preemergence, Rate 250 g/ha
  Wild oats plant response rating (0 to 10 scale): 0
[14]; [22]
  Wild oats plant response rating: 3
[14]; [23]
  Plant response rating, Wild oats: 0
[15]; [17]
  Rape plant response rating: 0
[15]; [18]
  Rape plant response rating: 0
[15]; [19]
  Plant response rating, Rape: 7
[15]; [20]
  Rape plant response rating: 0
[15]; [21]
  Rape plant response rating: 0
[15]; Preemergence, Rate 250 g/ha
  Rape plant response rating (0 to 10 scale): 0
[15]; [22]
  Rape plant response rating: 0
[15]; [23]
  Plant response rating, Rape: 5
[16]; [17]
  Crabgrass plant response rating: 2
[16]; [18]
  Crabgrass plant response rating: 3
[16]; [19]
  Plant response rating, Crabgrass: 9
[16]; [20]
  Crabgrass plant response rating: 3
[16]; [21]
  Crabgrass plant response rating: 7
[16]; Preemergence, Rate 250 g/ha
  Crabgrass plant response rating (0 to 10 scale): 10
[16]; [22]
  Crabgrass plant response rating: 10
[16]; [23]
  Plant response rating, Crabgrass: 6
